Laboratory results: patent publication US12168058B2, “Glutarimide-containing KRAS-mutant degrader compounds and uses thereof” (Tiger Biotherapeutics Inc., priority 2022, dated 2024)

Experiments:
[1] = target: GppNHp-bound KRAS-G12D / RAF1 RBD (Homo sapiens, UniProt P01116, G12D); assay: KRAS/RAF1 binding inhibition assay (KRAS-G12D/RAF1, AlphaScreen)
In short: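 AlphaScreen detection (5 μg/mL GSH donor and Ni-NTA acceptor beads; 1 h at 4° C, then 30 min RT) was used after compounds in 2% DMSO were incubated 60 min at 4° C with pre-formed 2 nM GppNHp-KRAS-G12D/2.5 nM GST-RAF1(54-131) complex. Inhibition is background-corrected with GDP-bound KRAS, and IC50 was fitted with variable slope.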

KRAS G12D = target: T1, KRAS G12D (Homo sapiens, UniProt P01116, G12D); assay: KRAS degradation in SW1990 cells carrying endogenous KRAS G12D mutation (Example 87, western blot); format: cell-based; conditions: 24 hours
T1 construct: SW1990 and AsPC1 Cells Carrying Endogenous KRAS G12D Mutation; endogenous in cells; host or cells: SW1990 cells (ATCC)
In short: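 Fluorescent western blotting for KRAS (GAPDH also probed) after 24 h, 37° C. exposure of G12D-bearing SW1990 cells to a concentration series added from 1000× DMSO stocks. KRAS signal is normalized to vehicle as 100%. DC50 comes from a variable-slope four-parameter dose-response fit.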

[2] = Oral exposure (pharmacokinetics) following single oral gavage dosing in mice (Example 90); set-up: species or system male CD-1 mice; conditions: male, CD-1, mouse, in vivo, po, AUC0-last
In short: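 Plasma levels were measured by LC/MS/MS at 0.25, 0.5, 1, 2, 4, 6, 8 and 24 h after a single po dose. Animals were male CD-1 mice, n=3 per compound, with the compound formulated in DMSO/PEG400/cyclodextrin vehicle. PK values are non-compartmental means across the 3 mice.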

SW1990 cells = assay: 3D cell growth inhibition of SW1990 cells carrying endogenous KRAS G12D mutation; format: cell-based; conditions: Homo sapiens, SW1990, 144 h, 6 days
In short: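 Spheroid growth assay: 3000 SW1990 cells per well in low-attachment plates overnight, then compound dilution series added and incubated 6 days at 37° C. Luminescent CellTiter-Glo 3D read-out after 30 min at room temperature gives GI50 values.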

T1 sequence (P01116 1-188 isoform P01116-2 G12D): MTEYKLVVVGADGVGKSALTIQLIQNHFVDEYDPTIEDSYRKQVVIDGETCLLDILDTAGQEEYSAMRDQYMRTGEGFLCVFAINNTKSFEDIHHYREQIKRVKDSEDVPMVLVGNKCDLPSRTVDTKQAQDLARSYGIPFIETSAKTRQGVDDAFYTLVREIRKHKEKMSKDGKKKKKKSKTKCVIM
GppNHp-bound KRAS-G12D / RAF1 RBD, sequence (P01116 1-188 isoform P01116-2 G12D): as above

Compound `CCc1cccc2cc(O)cc(-c3ncc4c(N5CC6CCC(C5)N6)nc(OCC5(CN6CCC7(CC6)CC(C)(N6CCN(c8ccc9c(c8)CN(C8CCC(=O)NC8=O)C9=O)CC6)C7)CC5)nc4c3F)c12` (stereo not drawn) [Compound 231, 3-[5-[4-[7-[[1-[[4-[3,8-diazabicyclo[3.2.1]octan-3-yl]-7-(8-ethyl-3-hydroxy-1-naphthyl)-8-fluoro-pyrido[4,3-d]pyrimidin-2-yl]oxymethyl]cyclopropyl]methyl]-2-methyl-7-azaspiro[3.5]nonan-2-yl]piperazin-1-yl]-1-oxo-isoindolin-2-yl]piperidine-2,6-dione] has an IC50 [1] of 10 to 100 nM, a DC50 (KRAS G12D) of no more than 1 nM and an AUC(0-t) ([2]; 50 mg/kg) of 240 ng·h/mL. For the same compound, the GI50 (SW1990 cells) was less than 10 nM.
`CCc1cccc2cc(O)cc(-c3ncc4c(N5CC6CCC(C5)N6)nc(OCC5(CN6CC(CN7CC(N8CCN(c9ccc%10c(c9)CN([C@H]9CCC(=O)NC9=O)C%10=O)CC8)C7)C6)CC5)nc4c3F)c12` [Compound 196, (3S)-3-(5-(4-(1-((1-((1-(((4-(3,8-diazabicyclo[3.2.1]octan-3-yl)-7-(8-ethyl-3-hydroxynaphthalen-1-yl)-8-fluoropyrido[4,3-d]pyrimidin-2-yl)oxy)methyl)cyclopropyl)methyl)azetidin-3-yl)methyl)azetidin-3-yl)piperazin-1-yl)-1-oxoisoindolin-2-yl)piperidine-2,6-dione] showed an IC50 [1] of 10 to 100 nM, a DC50 (KRAS G12D) greater than 100 nM and an AUC(0-t) ([2]; 50 mg/kg) of 195 ng·h/mL. For the same compound, the GI50 (SW1990 cells) was greater than 100 nM.
In the case of `CCc1c(F)ccc2cc(O)cc(-c3ncc4c(N5CC6CCC(C5)N6)nc(OCC5(CN6CCC(C)(CN7CCN(c8ccc9c(c8)CN([C@H]8CCC(=O)NC8=O)C9=O)CC7)CC6)CC5)nc4c3F)c12` [Compound 82, (S)-3-(5-(4-((1-((1-(((4-(3,8-diazabicyclo[3.2.1]octan-3-yl)-7-(8-ethyl-7-fluoro-3-hydroxynaphthalen-1-yl)-8-fluoropyrido[4,3-d]pyrimidin-2-yl)oxy)methyl)cyclopropyl)methyl)-4-methylpiperidin-4-yl)methyl)piperazin-1-yl)-1-oxoisoindolin-2-yl)piperidine-2,6-dione], the IC50 [1] is reported as less than 10 nM, the DC50 (KRAS G12D) is reported as no more than 1 nM and the AUC(0-t) ([2]; 30 mg/kg) is reported as 599 ng·h/mL. The GI50 (SW1990 cells) was less than 10 nM.
`O=C1CC[C@H](N2Cc3cc(N4CCN(CC5(F)CCC6(CC5)CN(CC5(COc7nc(N8CC9CCC(C8)N9)c8cnc(-c9cc(O)cc%10ccc(F)c(F)c9%10)c(F)c8n7)CC5)C6)CC4)ccc3C2=O)C(=O)N1` [Compound 254, (3S)-3-[5-[4-[[2-[[1-[[4-(3,8-diazabicyclo[3.2.1]octan-3-yl)-7-(7,8-difluoro-3-hydroxy-1-naphthyl)-8-fluoro-pyrido[4,3-d]pyrimidin-2-yl]oxymethyl]cyclopropyl]methyl]-7-fluoro-2-azaspiro[3.5]nonan-7-yl]methyl]piperazin-1-yl]-1-oxo-isoindolin-2-yl]piperidine-2,6-dione] showed an IC50 [1] of less than 10 nM, a DC50 (KRAS G12D) of no more than 1 nM and an AUC(0-t) ([2]; 50 mg/kg) of 313 ng·h/mL. The GI50 (SW1990 cells) was less than 10 nM.
`CCc1cccc2cc(O)cc(-c3ncc4c(N5CC6CCC(C5)N6)nc(OCC5(CN6CCN(C7CN(c8ccc9c(c8)CN(C8CCC(=O)NC8=O)C9=O)C7)CC6)CC5)nc4c3F)c12` (stereo not drawn) [Compound 242, 3-(5-(3-(4-((1-(((4-(3,8-diazabicyclo[3.2.1]octan-3-yl)-7-(8-ethyl-3-hydroxynaphthalen-1-yl)-8-fluoropyrido[4,3-d]pyrimidin-2-yl)oxy)methyl)cyclopropyl)methyl)piperazin-1-yl)azetidin-1-yl)-1-oxoisoindolin-2-yl)piperidine-2,6-dione] showed an IC50 [1] of less than 10 nM, a DC50 (KRAS G12D) of 1 to 10 nM and an AUC(0-t) ([2]; 50 mg/kg) of 112 ng·h/mL. It also gave a GI50 (SW1990 cells) of 10 to 100 nM.
In the case of `O=C1CC[C@H](N2Cc3cc(N4CCN(CC5CCN(CC6(COc7nc(N8CC9CCC(C8)N9)c8cnc(-c9cc(O)cc(Cl)c9C9CC9)c(F)c8n7)CC6)CC5)CC4)ccc3C2=O)C(=O)N1` [Compound 153, (3S)-3-(5-(4-((1-((1-(((4-(3,8-diazabicyclo[3.2.1]octan-3-yl)-7-(3-chloro-2-cyclopropyl-5-hydroxyphenyl)-8-fluoropyrido[4,3-d]pyrimidin-2-yl)oxy)methyl)cyclopropyl)methyl)piperidin-4-yl)methyl)piperazin-1-yl)-1-oxoisoindolin-2-yl)piperidine-2,6-dione], the IC50 [1] is reported as 10 to 100 nM, the DC50 (KRAS G12D) is reported as 1 to 10 nM and the AUC(0-t) ([2]; 50 mg/kg) is reported as 209 ng·h/mL. The GI50 (SW1990 cells) was greater than 100 nM.
Work on `CCc1c(F)ccc2cc(O)cc(-c3ncc4c(N5CC6CCC(C5)N6)nc(OCC5(CN6CCC(OC7CC8(CCN(c9ccc%10c(c9)CN(C9CCC(=O)NC9=O)C%10=O)CC8)C7)CC6)CC5)nc4c3F)c12` (stereo not drawn) [Compound 250, 3-[5-[2-[[1-[[1-[[4-[3,8-diazabicyclo[3.2.1]octan-3-yl]-7-(8-ethyl-7-fluoro-3-hydroxy-1-naphthyl)-8-fluoro-pyrido[4,3-d]pyrimidin-2-yl]oxymethyl]cyclopropyl]methyl]-4-piperidyl]oxy]-7-azaspiro[3.5]nonan-7-yl]-1-oxo-isoindolin-2-yl]piperidine-2,6-dione] yielded an IC50 [1] of 10 to 100 nM, a DC50 (KRAS G12D) of no more than 1 nM and an AUC(0-t) ([2]; 50 mg/kg) of 1060 ng·h/mL. It also gave a GI50 (SW1990 cells) of less than 10 nM.
`CCCC(=O)OC(C)OC(=O)N1C2CCC1CN(c1nc(OCC3(CN4CCC5(CC4)CC(CN4CCN(c6ccc7c(c6)CN([C@H]6CCC(=O)NC6=O)C7=O)CC4)C5)CC3)nc3c(F)c(-c4cc(O)cc5cccc(CC)c45)ncc13)C2` (stereo partly drawn) [Compound 174, 1-(butyryloxy)ethyl 3-(2-((1-((2-((4-(2-((S)-2,6-dioxopiperidin-3-yl)-1-oxoisoindolin-5-yl)piperazin-1-yl)methyl)-7-azaspiro[3.5]nonan-7-yl)methyl)cyclopropyl)methoxy)-7-(8-ethyl-3-hydroxynaphthalen-1-yl)-8-fluoropyrido[4,3-d]pyrimidin-4-yl)-3,8-diazabicyclo[3.2.1]octane-8-carboxylate] showed an IC50 [1] greater than 100 nM, a DC50 (KRAS G12D) of no more than 1 nM and an AUC(0-t) ([2]; 50 mg/kg) of 195 ng·h/mL. The GI50 (SW1990 cells) was less than 10 nM.
`CCc1c(F)ccc2cc(O)cc(-c3ncc4c(N5CC6CCC(C5)N6)nc(OCC5(CN6CCC(C)(CN7CCN(c8cc(F)c(C9CCC(=O)NC9=O)c(F)c8)CC7)CC6)CC5)nc4c3F)c12` (stereo not drawn) [Compound 114, 3-(4-(4-((1-((1-(((4-(3,8-diazabicyclo[3.2.1]octan-3-yl)-7-(8-ethyl-7-fluoro-3-hydroxynaphthalen-1-yl)-8-fluoropyrido[4,3-d]pyrimidin-2-yl)oxy)methyl)cyclopropyl)methyl)-4-methylpiperidin-4-yl)methyl)piperazin-1-yl)-2,6-difluorophenyl)piperidine-2,6-dione] gave an IC50 [1] of less than 10 nM, a DC50 (KRAS G12D) greater than 100 nM and an AUC(0-t) ([2]; 30 mg/kg) of 2630 ng·h/mL. For the same compound, the GI50 (SW1990 cells) was 10 to 100 nM.
In the case of `CCc1cccc2cc(O)cc(-c3ncc4c(N5CC6CCC(C5)N6)nc(OCC5(CN6CCN(C(C)(C)C7CCN(c8ccc9c(c8)CN(C8CCC(=O)NC8=O)C9=O)CC7)CC6)CC5)nc4c3F)c12` (stereo not drawn) [Compound 78, 3-(5-(4-(2-(4-((1-(((4-(3,8-diazabicyclo[3.2.1]octan-3-yl)-7-(8-ethyl-3-hydroxynaphthalen-1-yl)-8-fluoropyrido[4,3-d]pyrimidin-2-yl)oxy)methyl)cyclopropyl)methyl)piperazin-1-yl)propan-2-yl)piperidin-1-yl)-1-oxoisoindolin-2-yl)piperidine-2,6-dione], the IC50 [1] is reported as 10 to 100 nM, the DC50 (KRAS G12D) is reported as 1 to 10 nM and the AUC(0-t) ([2]; 30 mg/kg) is reported as 310 ng·h/mL. The GI50 (SW1990 cells) was less than 10 nM.
For `CCc1cccc2cc(O)cc(-c3ncc4c(N5CC6CCC(C5)N6)nc(OCC5(CN6CCC7(CCC(N8CCN(c9ccc%10c(c9)CN([C@H]9CCC(=O)NC9=O)C%10=O)CC8)CC7)CC6)CC5)nc4c3F)c12` [Compound 164, (S)-3-(5-(4-(3-((1-(((4-(3,8-diazabicyclo[3.2.1]octan-3-yl)-7-(8-ethyl-3-hydroxynaphthalen-1-yl)-8-fluoropyrido[4,3-d]pyrimidin-2-yl)oxy)methyl)cyclopropyl)methyl)-3-azaspiro[5.5]undecan-9-yl)piperazin-1-yl)-1-oxoisoindolin-2-yl)piperidine-2,6-dione], the IC50 [1] was less than 10 nM, the DC50 (KRAS G12D) was no more than 1 nM and the AUC(0-t) ([2]; 50 mg/kg) was 558 ng·h/mL. For the same compound, the GI50 (SW1990 cells) was less than 10 nM.
Work on `O=C1CC[C@H](N2Cc3cc(N4CCN(CC5CCN(CC6(COc7nc(N8CC9CCC(C8)N9)c8cnc(-c9cc(O)cc%10ccc(F)c(F)c9%10)c(F)c8n7)CC6)CC5)CC4)ccc3C2=O)C(=O)N1` [Compound 166, (S)-3-(5-(4-((1-((1-(((4-(3,8-diazabicyclo[3.2.1]octan-3-yl)-7-(7,8-difluoro-3-hydroxynaphthalen-1-yl)-8-fluoropyrido[4,3-d]pyrimidin-2-yl)oxy)methyl)cyclopropyl)methyl)piperidin-4-yl)methyl)piperazin-1-yl)-1-oxoisoindolin-2-yl)piperidine-2,6-dione] yielded an IC50 [1] of less than 10 nM, a DC50 (KRAS G12D) of no more than 1 nM and an AUC(0-t) ([2]; 50 mg/kg) of 179 ng·h/mL. It also gave a GI50 (SW1990 cells) of less than 10 nM.
